Experimental data published in patent US8445444B2, “Compositions and methods for diagnosing, treating, and preventing prostate conditions” (Phigenix, Inc., priority 2007, dated 2013).
“Also recorded” adds a separate entry of the source.

Legend:
Assay type in all cases: cell-based, human
PC3 = assay: Annexin V-FITC/propidium iodide flow cytometry
Experimental: (§1) Flow Cytometry: PC3 and DU145 cells co-transfected with the DEFB1 expression system were grown in 60-mm dishes and induced for 12, 24, and 48 hours with 10 μM Ponasterone A. Following each incubation period, the medium was collected from the plates (to retain any detached cells) and combined with PBS used to wash the plates. The remaining attached cells were harvested by trypsinization and combined with the detached cells and PBS. The cells were then pelleted at 4° C. (500×g) for 5 min, washed twice in PBS, and resuspended in 100 ul of 1× Annexin binding buffer (0.1 M Hepes/NaOH at pH 7.4, 1.4 M NaCl, 25 mM CaCl2) containing 5 μl of Annexin V-FITC and 5 μl of PI. The cells were incubated at RT for 15 min in the dark, then diluted with 400 μl of 1× Annexin binding buffer and analyzed by FACscan (Becton Dickinson, San Jose, Calif.). All reactions were performed three times.
(§2) Flow cytometry: PC3 and DU145 cells transfected with the hBD-1 expression system were grown in 60-mm dishes and induced for 12, 24, and 48 h with 10 μM Pon A. Following each incubation period, the medium was collected from the plates (to retain any detached cells) and combined with PBS used to wash the plates. The remaining attached cells were harvested by trypsinization and combined with the detached cells and PBS. The cells were then pelleted at 4° C. (500×g) for 5 min, washed twice in PBS, and resuspended in 100 μl, of 1× Annexin binding buffer (0.1 M Hepes/NaOH at pH 7.4, 1.4 M NaCl, 25 mM CaCl2) containing […] Annexin V-FITC and 5 μl of PI. The cells were incubated at RT for 15 min in the dark, then diluted with 400 μl of 1× Annexin binding buffer and analyzed by FACscan (Becton Dickinson, San Jose, Calif.). All reactions were performed three times.

DU145 [1] = assay: Annexin V-FITC/propidium iodide flow cytometry
Experimental: as §1, §2

DU145 [2] = assay: Pan-caspase detection (FAM-VAD-FMK, confocal); conditions: DU145, 24 h DEFB1 (hBD-1) induction
Experimental: Detection of caspase activity in the prostate cancer cell lines was performed using APO LOGIX™ Carboxyfluorescin Caspase detection kit (Cell Technology, Mountain View, Calif.). Active caspases were detected through the use of a FAM-VAD-FMK inhibitor that irreversibly binds to active caspases. Briefly, DU 145 and PC3 cells (1.5-3×10^5) containing the DEFB1 expression system were plated in 35 mm glass bottom microwell dishes (Matek, Ashland, Mass.) and treated for 24 hours with media only or with media containing PonA as previously described. Next, 10 μl of a 30× working dilution of carboxyfluorescein labeled peptide fluoromethyl ketone (FAM-VAD-FMK) was added to 300 μl of media and added to each 35 mm dish. Cells were then incubated for 1 hour at 37° C. under 5% CO2. […] The fluorescent signal was analyzed using a confocal microscope (Zeiss LSM 5 Pascal) and a 63×DIC oil lens with a Vario 2 RGB Laser Scanning Module.
Pan-Caspase Detection: Detection of caspase activity in the prostate cancer cell lines was performed using APO LOGIX™ Carboxyfluorescin Caspase detection kit (Cell Technology, Mountain View, Calif.). Active caspases were detected through the use of a FAM-VAD-FMK inhibitor that irreversibly binds to active caspases. […] The fluorescent signal was analyzed using a confocal microscope (Zeiss LSM 5 Pascal) and a 63×DIC oil lens with a Vario 2 RGB Laser Scanning Module. […]

How did the “number of apoptotic cells (lower and upper right quadrants)” value (PC3; PC3, 12 h DEFB1 (hBD-1) induction) turn out when “DEFB1: human beta defensin-1 expressed from the ecdysone inducible pIND/DEFB1 construct, induced with Ponasterone A (DHYNCVSSGGQCLYSACPIFTKIQGTCYRGKAKCCK; UniProt P60022 33-68, looked up)” was run?
The value was 10%.

What about the “number of apoptotic cells (lower and upper right quadrants)” value (PC3; PC3, 24 h) of the same substance?
Its value is 20%.

And the “number of apoptotic cells (lower and upper right quadrants)” value (PC3; PC3, 48 h)?
Its value is 44%.

What about the “number of apoptotic cells (lower and upper right quadrants)” value (DU145 [1]; DU145, 12 h DEFB1 (hBD-1) induction) of the same substance?
The value was 12%.

What about the “number of apoptotic cells (lower and upper right quadrants)” value (DU145 [1]; DU145, 24 h) of the same substance?
The value was 34%.

What about the “number of apoptotic cells (lower and upper right quadrants)” value (DU145 [1]; DU145, 48 h) of the same substance?
Its value is 59%.

And the caspase activity (DU145 [2])?
Its caspase activity is “revealed caspase activity; also recorded: green staining”.

What about the caspase activity (DU145 [2]; listed as hBD-1) of the same substance?
Its caspase activity is “green staining”.
